# Experimental data as given in patent publication US12419848B2, “Treatment of hyperinflammatory syndrome” (priority 2020, dated 2025).
# Structures can show the parent of a compound that is named as a salt.
# Columns and labels:
# P2X7R = target: T1, P2X7R (Homo sapiens, UniProt Q99572); parameters: endogenous in cells; host or cells: human subjects (clinical trials reported elsewhere); conditions: administered orally; cited from earlier work
# T1 sequence (Q99572 1-595): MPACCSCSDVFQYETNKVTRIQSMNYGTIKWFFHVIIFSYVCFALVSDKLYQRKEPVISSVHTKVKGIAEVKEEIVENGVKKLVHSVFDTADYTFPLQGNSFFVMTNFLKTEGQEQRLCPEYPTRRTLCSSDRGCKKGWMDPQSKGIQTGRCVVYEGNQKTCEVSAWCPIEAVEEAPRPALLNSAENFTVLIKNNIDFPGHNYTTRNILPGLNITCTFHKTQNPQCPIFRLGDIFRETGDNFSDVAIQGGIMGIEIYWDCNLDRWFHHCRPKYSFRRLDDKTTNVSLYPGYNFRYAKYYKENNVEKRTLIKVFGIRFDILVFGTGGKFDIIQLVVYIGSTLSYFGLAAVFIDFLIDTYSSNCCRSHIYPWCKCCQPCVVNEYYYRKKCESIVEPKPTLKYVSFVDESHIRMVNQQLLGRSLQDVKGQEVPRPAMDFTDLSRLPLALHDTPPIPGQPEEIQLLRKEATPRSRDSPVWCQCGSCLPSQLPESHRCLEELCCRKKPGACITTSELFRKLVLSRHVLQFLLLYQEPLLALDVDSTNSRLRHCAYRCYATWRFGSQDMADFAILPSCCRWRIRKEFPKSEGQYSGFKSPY
# [1] = tested on: posttraumatic epileptic seizures; assay: Example 21: posttraumatic epileptic seizures; format: in vivo, human
# [2] = tested on: psoriatic arthritis, herpes zoster infection; assay: Example 11: psoriatic arthritis with herpes zoster
# [3] = tested on: chronic interstitial cystitis; assay: Example 13: chronic interstitial cystitis; format: in vivo, human; conditions: for effect on symptoms (prior treatment): in vivo
# [4] = tested on: idiopathic Parkinson's disease
# Alzheimer's disease = assay: Example 19: Alzheimer's dementia; format: in vivo, human; conditions: sublingual 4×100 mg/d, after 3 months; before 15
# SLE peritonitis = assay: Example 33: systemic lupus erythematosus; format: in vivo, human
# ulcerative colitis = assay: Example 27: ulcerative colitis; format: in vivo, human
# COPD = assay: Example 25: COPD; format: in vivo, human; conditions: sublingual 4×100 mg/d, after 3 months; before 60%
# ischaemic cardiomyopathy = assay: Example 31: ischaemic cardiomyopathy; format: in vivo, human
# [5] = tested on: inflammatory bowel disease with perianal fistulae; assay: Example 28: inflammatory bowel disease with perianal fistulae; format: in vivo; conditions: dog, 4×100 mg/d applied into the largest fistula, after 1 week
# diabetic polyneuropathy = assay: Example 23: diabetic polyneuropathy; format: in vivo, human
# acute lumbago = assay: Example 32: acute lumbago; format: in vivo, human; conditions: sublingual 4×100 mg/d, after 30 minutes
# myasthenia gravis = assay: Example 24: myasthenia gravis; format: in vivo, human
# Experimental: A person was diagnosed having myasthenia gravis. They suffered from muscle weakness of the arms and hand after physical activity. The diagnosis was confirmed with EMG and positive test for antibodies against acetylcholine receptor (AChR). They were treated with oral anticholinesterase drug (mestinon) 4×60 mg/d. […] The treatment was continued for 2 weeks.
# ALS = assay: Example 18: amyotrophic lateral sclerosis; format: in vivo, human
# [6] = Examples 1-6: safety (ECG, metHb, confusion); conditions: for Blood metHb: within the normal range
# [7] = tested on: renal function impairment; assay: Example 16: advanced cervix carcinoma and renal dysfunction; format: in vivo, human; conditions: continuous subdermal 1 mg/kg/hr
# COVID-19 [8] = format: in vivo
# terminal cancer patients = assay: Example 17: diverse cancer, palliative; format: in vivo, human; conditions: for time to relief of pain, nausea and/or extreme fatigue: continuous subcutaneous 1 mg/kg/hr; for SIP68: 10 patients, before treatment 48 (range 18-68)
# COVID-19 [9] = assay: Example 7: COVID-19 case; format: in vivo, human
# From the text: On Mar. 24, 2020, a person developed cough, dyspnoea, myalgia, pain in hip and groin, shivers but no fever. A COVID-19 test was not performed. This occurred one week after closely working together with a colleague who developed proven severe COVID-19 requiring hospital admission.
# On Jul. 12, 2020, (day 1) the patient developed new symptoms comprising shivers, joint pain (knees, hips, shoulders) and conjunctivitis of the left eye. They reported sick at work. The infection probably occurred on Jul. 1, 2020. On that day they met many people during their work at the office and in the evening they went for a drink in a bar with a few colleagues. The infection occurred despite social distancing and hand sanitising. At that time no one wore a face mask. […] On July 21 (day 10), 2020, the IgA antibody test for COVID-19 result was positive.
# A few hours later a clinical deterioration occurred with extreme fatigue, chest pain and pain in the right upper arm. The treatment was converted to transdermal lidocaine cream. […] As much as 400 mg cream is applied over the skin and covered by Tegaderm transparent wound dressing. […] But after 6 hours the infusion rate was increased to 63 mg/hour (1 mg/kg/hr) due to persistent symptoms.
# Day 85, after almost 3 weeks with no symptoms other than a fluctuating pain in the upper arm, the prickling sensations of the lung returned. SpO2 96%, HR 90/min, BP 95/68 mm Hg, temperature […]. […] Inhalation of the lidocaine solution was avoided.
# rheumatoid arthritis = assay: Example 30: rheumatoid arthritis; parameters: species or system human; conditions: in vivo
# [10] = sublingual 4×100 mg/d, after 1 month
molecule,measurement,setting,value
O=C(NCC12CC3CC(CC(C3)C1)C2)c1cc(CCCNCCCO)ccc1Cl [AZD9056],outcome of oral administration,P2X7R,without great success
"COC[C@H](O)Cn1c(=O)cnn(-c2ccc(Cl)c(C(=O)NCC3(O)CCCCCC3)c2)c1=O [CE-224,535 500]",outcome of oral administration,P2X7R,without great success
CCN(CC)CC(=O)Nc1c(C)cccc1C [Lidocaine hydrochloride],EEG epileptic activity of the brain,[1]; subdermal 1 mg/kg/hour,had disappeared
same,time to disappearance of seizures,"[1]; subdermal 1 mg/kg/hour, 20 mg/ml solution",≤ 30 min
CN1CC[C@]23c4c5ccc(O)c4O[C@H]2[C@@H](O)C=C[C@H]3[C@H]1C5 [Morphine],effect on herpes zoster pain,[2]; before lidocaine treatment,did not subside the pain
same,side effect,[2]; in vivo,developed obstipation
COc1ccc2c3c1O[C@H]1C(=O)CC[C@@]4(O)[C@@H](C2)N(C)CC[C@]314 [Oxycodone],effect on symptoms (prior treatment),[3],had no effect on their symptoms
CN1C(=O)CN=C(c2ccccc2)c2cc(Cl)ccc21 [diazepam],effect on generalised epileptic seizures,[1]; repeated 10 mg intravenous,had no effect
N[C@@H](Cc1ccc(O)c(O)c1)C(=O)O [levodopa],side effect after increasing dosage,[4]; in vivo,levodopa-induced chorea
same,symptoms (prior treatment),"[4]; initially, symptoms returned after 6 years",the symptoms improved clearly
"CCN(CC)CC(=O)Nc1c(C)cccc1C [lidocaine base, lidocaine]",MMSE Test total score,Alzheimer's disease,23
same,abdominal distension,SLE peritonitis; after 2 weeks,disappeared completely
same,clinical symptoms,SLE peritonitis; sublingual 4×100 mg/d,disappeared in the course of 6 days
same,tendency to fall,[4]; [10],gradually improved
same,tremor,[4]; [10],almost disappeared
same,symptoms,"ulcerative colitis; sublingual 4×100 mg/d, after 3 days",completely disappeared
same,FEV1,COPD,84%
same,chest pain episodes,ischaemic cardiomyopathy; after 3 weeks,significantly diminished
same,cardiac ejection fraction (transthoracic echocardiographic),"ischaemic cardiomyopathy; sublingual 4×100 mg/d, after 3 months, before 31%",42%
same,oozing opaque fluid secretion and bad odour,[5],had disappeared
same,muscle strength of hands,diabetic polyneuropathy; after 3 months,improved significantly
same,tingling feelings in hands and feet,"diabetic polyneuropathy; sublingual 4×100 mg/d, after a few days",disappeared completely
same,symptoms disappeared,acute lumbago,95%
same,influenza A viral infection symptoms,myasthenia gravis; sublingual 4×100 mg/d,disappeared almost completely
same,time to significant improvement of muscle weakness of arms and hand,myasthenia gravis; sublingual 4×100 mg/d,≤ 4 h
CCN(CC)CC(=O)Nc1c(C)cccc1C [lidocaine],symptoms,"polymyalgia rheumatica; nocturnal continuous subdermal 0.5 mg/kg/hr, 8 hours, 2 x/week",disappeared after the first treatment
same,time to disappearance of symptoms,polymyalgia rheumatica; sublingual 2×60 mg/d,≤ 1 h
same,MRC muscle strength: Upper arm abduction left,"ALS; six months, sublingual 4×100 mg/d, before 4",5
same,MRC muscle strength: Foot extension left,"ALS; six months, before 1",2
same,MRC muscle strength: Foot extension right,"ALS; six months, before 1",2
same,MRC muscle strength: Foot flexion left,"ALS; six months, before 2",3
same,MRC muscle strength: Foot flexion right,"ALS; six months, before 2",3
same,MRC muscle strength: Elbow flexion left,"ALS; six months, before 4",4
same,MRC muscle strength: Elbow flexion right,"ALS; six months, before 4",4
same,MRC muscle strength: Knee flexion left,"ALS; six months, before 4",5
same,MRC muscle strength: Knee flexion right,"ALS; six months, before 4",5
same,MRC muscle strength: Upper arm abduction right,"ALS; six months, before 4",5
same,muscle cramping,"ALS; sublingual 4×100 mg/d, after one week",gradually disappeared
same,new ECG changes during treatment with lidocaine,[6]; Patient 1,No new ECG changes
same,Blood metHb,[6]; Patient 1,0.3-0.8%
same,new ECG changes during treatment with lidocaine,[6]; Patient 2,No new ECG changes
same,signs of confusion after extubation,"[6]; Patient 2, day 22, on lidocaine",no signs of confusion
same,Blood metHb,[6]; Patient 2,0.1-0.6%
same,new ECG changes during treatment with lidocaine,[6]; Patient 3,No new ECG changes
same,signs of confusion after extubation,"[6]; Patient 3, day 5",no signs of confusion
same,Blood metHb,[6]; Patient 3,0.1-0.4%
same,new ECG changes during treatment with lidocaine,[6]; Patient 4,No new ECG changes
same,signs of confusion after extubation,[6]; Patient 4,no signs of confusion
same,Blood metHb,[6]; Patient 4,0.1-0.3%
same,new ECG changes during treatment with lidocaine,[6]; Patient 5,No new ECG changes
same,signs of confusion after extubation,"[6]; Patient 5, day 10",no signs of confusion
same,Blood metHb,[6]; Patient 5,0.1-0.3%
same,new ECG changes during treatment with lidocaine,[6]; Patient 6,No new ECG changes
same,signs of confusion after extubation,"[6]; Patient 6, day 10",no signs of confusion
same,Blood metHb,[6]; Patient 6,0.1-0.3%
same,renal function,[7],improved
same,all symptoms except dry mouth feelings and mild fatigue,"COVID-19 [8]; day 8, sublingual 3×60 mg/d",disappeared completely
same,"runny nose, headache, neck pain and neck stiffness","COVID-19 [8]; sublingual 5×60 mg, 24 hours after initiation",disappeared
same,"time to relief of pain, nausea and/or extreme fatigue",terminal cancer patients; 7 of 10 patients,≤ 2 h
same,SIP68,terminal cancer patients; after 3 days,33 (range 12-58)
same,SIP68,terminal cancer patients; after 7 days,28 (range 12-56)
same,"time to relief of pain, nausea and/or extreme fatigue",terminal cancer patients; remaining patients,≤ 48 h
same,symptoms,"COVID-19 [9]; continuous subdermal 0.5 mg/kg/hr, after a few hours (March 2020)",practically free of symptoms
same,symptoms,"COVID-19 [9]; day 11, infusion 24 hours per day",improved gradually
same,symptoms,"COVID-19 [9]; day 12-13, subdermal 0.63 mg/kg/hr plus amoxicilline",improved significantly
same,clinical improvement,"COVID-19 [9]; day 18, subdermal 40 mg/hour, after 1 hour",clinical improvement was noticeable
same,symptoms,"COVID-19 [9]; day 18, subdermal 63 mg/hour (1 mg/kg/hr)",the symptoms disappeared with the exception of the pain in the upper arm
same,symptoms,"COVID-19 [9]; day 23, lidocaine infusion",reduced the symptoms to tolerable levels
same,time to improvement of symptoms,"COVID-19 [9]; day 46, continuous subdermal 0.63 mg/kg/hr",≤ 30 min
same,symptoms,"COVID-19 [9]; day 61, continuous subdermal 0.63 mg/kg/hr",the symptoms subsided
same,time to disappearance of prickling sensations and oppressive feeling on chest,"COVID-19 [9]; from day 85, sublingual 3×100 mg/d",20 min
same,symptoms after relapse,COVID-19 [9]; reinitiated continuous subcutaneous infusion,subsided again
same,symptoms,"COVID-19 [9]; subdermal 0.63 mg/kg/hr, day 1 (Jul. 12, 2020)",improved within a few hours
same,clinical condition,"COVID-19 [9]; subdermal infusion reinitiated Apr. 1, 2020, after a few days",the clinical condition improved
same,symptoms,"[3]; continuous subcutaneous 1 mg/kg/hr, after 2 days",practically free of symptoms
Nc1ccc(O)c(C(=O)O)c1 [mesalamine],response of symptoms in this exacerbation,ulcerative colitis; oral CR 3×400 mg/d,did not respond
CN(C)C(=O)Oc1ccc[n+](C)c1 [mestinon],efficacy during influenza A infection,myasthenia gravis; oral 4×60 mg/d,no longer effective
CN(Cc1cnc2nc(N)nc(N)c2n1)c1ccc(C(=O)N[C@@H](CCC(=O)O)C(=O)O)cc1 [methotrexate],effect on symptoms (prior treatment),rheumatoid arthritis,did not improve the symptoms
CC(=O)Nc1ccc(O)cc1 [paracetamol],effect on symptoms (prior treatment),[3],had no effect on their symptoms
tocilizumab: disease-modifying antirheumatic drug,effect on symptoms (prior treatment),rheumatoid arthritis,did not improve the symptoms
